Assay results published in PubChem BioAssay (NCI).
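96-well plates; 48 h exposure; 5 concentrations. Endpoints by linear interpolation between flanking doses. Not reached: highest tested concentration assigned. GI50 is the concentration that inhibits growth by half. The concentration for full growth arrest is given as TGI.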

Assays:
Assay in all cases: inhibition of tumour cell growth, NCI panel, 48 h
[1] = test system: HOP-92 NSCLC
[2] = test system: HS 578T breast
[3] = test system: NCI-H23 lung
[4] = test system: NCI-H522 lung
[5] = test system: OVCAR-3 ovarian
[6] = test system: SF-295 CNS
[7] = test system: SK-MEL-5 melanoma
[8] = test system: T-47D breast
[9] = test system: UACC-62 melanoma
[10] = test system: UO-31 renal

SMILES | GI50 [1] | TGI [1] | GI50 [2] | TGI [2] | GI50 [3] | TGI [3] | GI50 [4] | TGI [4] | GI50 [5] | TGI [5] | GI50 [6] | TGI [6] | GI50 [7] | TGI [7] | GI50 [8] | TGI [8] | GI50 [9] | TGI [9] | GI50 [10] | TGI [10]
O=C1Nc2ccc(O)cc2/C1=C\c1ccncc1 | 31.2 µM | > 100 µM | 29.2 µM | 97.3 µM | 25.1 µM | 62.4 µM | 11.5 µM | 38.2 µM | 13.3 µM | 41 µM | 25.9 µM | 77.8 µM | 15.5 µM | 38.1 µM | 26.9 µM | > 100 µM | 12.2 µM | 26.4 µM | 14.1 µM | 31.8 µM
O=C1CC(C(=O)O)Cc2c(Br)ccc(O)c21 (centres undefined) |  | > 100 µM |  | > 100 µM |  | > 100 µM |  | > 100 µM |  | > 100 µM |  | > 100 µM |  | > 100 µM |  | > 100 µM |  | > 100 µM |  | > 100 µM
O=c1c2cccc(F)c2sc2c(NCCCNCCO)nc3ccccc3c12 | 1.42 µM | 5.15 µM | 1.55 µM | 3.53 µM | 1.54 µM | 2.99 µM | 1.76 µM | 3.69 µM | 1.7 µM | 3.12 µM | 1.76 µM | 3.19 µM | 1.71 µM | 3.09 µM | 1.76 µM | 4.1 µM | 1.77 µM | 3.26 µM | 1.1 µM | 2.35 µM
NS(=O)(=O)c1ccc(N=Nc2c(O)[nH]c3ccc(C(=O)NCCc4cnc[nH]4)cc23)cc1 | > 25 µM | > 25 µM | > 25 µM | > 25 µM | > 25 µM | > 25 µM | > 25 µM | > 25 µM | > 25 µM | > 25 µM | > 25 µM | > 25 µM | > 25 µM | > 25 µM | > 25 µM | > 25 µM | > 25 µM | > 25 µM | > 25 µM | > 25 µM
O=C(COc1cccc(/C=C2\COc3ccccc3C2=O)c1)c1ccccc1 | 2.94 µM | 16.8 µM | 2.34 µM | > 100 µM | 4.47 µM | 16.1 µM | 1.81 µM | 3.79 µM | 2.39 µM | 5.12 µM | 1.93 µM | 15.8 µM | 2.83 µM | 7.63 µM | 2.53 µM | 6.04 µM | 3 µM | 10.2 µM | 1.77 µM | 3.26 µM
C[C@]12CCCN1CC1=NNC(=O)c3cc(F)cc4[nH]c2c1c34 | 2.71 µM | 20.7 µM | 11.8 µM | 62.5 µM | 16.1 µM | 54.6 µM | 21.9 µM | 63.6 µM | 17.8 µM | > 100 µM | 16.1 µM | 51.1 µM | 20.7 µM | 53.4 µM | 20.6 µM | 91.9 µM | 12.7 µM | 28.3 µM | 16 µM | > 100 µM
CC1NC(C(=O)O)Cc2cc(O)c(O)cc21 (centres undefined) |  | > 100 µM |  | > 100 µM |  | > 100 µM |  | > 100 µM |  | > 100 µM |  | > 100 µM |  | > 100 µM |  | > 100 µM |  | > 100 µM |  | > 100 µM
CCSc1nc(NC(C)c2ccccc2)c2cnn(CO)c2n1 (centres undefined) | 18.2 µM | 97.1 µM | 8.09 µM | 99.4 µM | 18.4 µM | > 100 µM | 14.7 µM | > 100 µM | 64.7 µM | > 100 µM | 35.2 µM | > 100 µM | 3.18 µM | 25.9 µM | > 100 µM | > 100 µM | 26.6 µM | > 100 µM | 66.5 µM | > 100 µM
C=C1C(=O)O[C@@H]2C[C@@H]1CC[C@]1(C)O[C@H]1CC/C(C)=C/CC[C@@]2(C)O | 29.1 µM | 82.7 µM | 21.7 µM | 68.5 µM | 20.9 µM | 58.4 µM | 27.2 µM | > 100 µM | 23.1 µM | 64.1 µM | 29.7 µM | 92.5 µM | 24.3 µM | 52.7 µM | 28.8 µM | 58.7 µM | 17.5 µM | 36.4 µM | 29.5 µM | > 100 µM
O=C(Nc1ccc(Oc2ccc(NC(=O)Nc3ccccc3Cl)cc2)cc1)Nc1ccccc1Cl | 1.34 µM | 9.53 µM | 17.8 µM | > 100 µM | 3.61 µM | 18.5 µM | 7.91 µM | 42.6 µM | 11.3 µM | > 55 µM | 6.81 µM | 33.9 µM |  | > 100 µM | 6.98 µM | > 90.6 µM | 7.42 µM | > 62 µM | 34.8 µM | > 95.8 µM
COc1ccc(N=N/C(=N\NC(=O)c2cc(Br)ccc2O)c2ccc(N(CCC#N)CCC#N)cc2OC)cc1 | 81.9 µg/mL | > 150 µg/mL | 82.5 µg/mL | > 150 µg/mL | 110 µg/mL | > 150 µg/mL | 40.1 µg/mL | 141 µg/mL | 51.4 µg/mL | > 150 µg/mL | 73.8 µg/mL | > 150 µg/mL | 56.1 µg/mL | > 150 µg/mL | 72.5 µg/mL | > 150 µg/mL | 94.2 µg/mL | > 150 µg/mL | 59.5 µg/mL | > 150 µg/mL
CCC(CC)c1cc(N[C@H]2CC[C@H](N)C2)n2nccc2n1 | 3.56 µM | > 100 µM | 2.27 µM | 9.44 µM | 2.2 µM | 8.29 µM | 0.281 µM | 1.55 µM | 1.01 µM | > 100 µM | 1.83 µM | > 100 µM | 2.21 µM | 11 µM | 0.759 µM | > 100 µM | 1.45 µM | 3.46 µM | 2.08 µM | 5.69 µM
CN1CCN(Cc2ccc(NC(=O)c3cncc(C#Cc4c(N)ncc5c(F)cccc45)c3)cc2C(F)(F)F)CC1 | 0.135 µM | 0.858 µM | 0.812 µM | 2.18 µM | 0.804 µM | 1.69 µM | 0.75 µM | 1.66 µM | 0.828 µM | 1.53 µM | 0.89 µM | 1.77 µM | 0.841 µM | 1.55 µM | 1.94 µM | 6.38 µM | 0.845 µM | 1.81 µM | 0.712 µM | 1.42 µM
COC(=O)CC1C2(C)C3=C(C)C(c4ccoc4)CC3OC2C2OC(=O)C3(C)C=CC(=O)C1(C)C23 (centres undefined) |  | 5.52 µM |  | > 96.3 µM |  | 3.52 µM |  | 3.22 µM |  | 7.56 µM |  | 13 µM |  | 3.03 µM |  | 2.92 µM |  | 3.79 µM |  | 2.52 µM
NC(CP(=O)(O)O)C(=O)O (centres undefined) |  | > 100 µM |  | > 100 µM |  | > 100 µM |  | > 100 µM |  | > 100 µM |  | > 100 µM |  | > 100 µM |  | > 100 µM |  | > 100 µM |  | > 100 µM
Cc1cc(I)cc(CNCCN2CCOCC2)c1O | 59.8 µM | > 100 µM | > 100 µM | > 100 µM | 27.5 µM | > 100 µM | 92.8 µM | > 100 µM | > 100 µM | > 100 µM | 36 µM | > 100 µM | 67.1 µM | > 100 µM | 84.8 µM | > 100 µM | > 100 µM | > 100 µM | 67.8 µM | > 100 µM
CCCCCCCCCCCCNC(=O)N[C@H](C(=O)N[C@H]1/C=C/CCNC(=O)/C=C/[C@H](C)NC1=O)C(C)C | 0.123 µM | 0.353 µM | 0.333 µM | 24 µM | 0.0513 µM | 0.612 µM | 0.0244 µM | 0.0647 µM | 0.0566 µM | 0.935 µM | 0.239 µM | 1.45 µM | 0.163 µM | 0.39 µM | 0.144 µM | 0.36 µM | 0.0447 µM | 0.168 µM | 32.2 µM | > 100 µM
CCNC(=O)Oc1ccc(/C(=C(\C)c2ccc(Cl)cc2)c2ccc(OCCN(CC)CC)cc2)cc1 | 3.16 µM | 12.6 µM | 3.72 µM | 16.5 µM | 7.92 µM | 22.1 µM | 13.3 µM | 28.1 µM | 4.56 µM | 16.7 µM | 1.85 µM | 4.12 µM | 1.75 µM | 3.15 µM | 2.16 µM | 12.5 µM | 2.07 µM | 4 µM | 1.54 µM | 3.62 µM
O=C(Nc1ccn(C2CC(I)C(COC(c3ccccc3)(c3ccccc3)c3ccccc3)O2)c(=O)n1)c1ccccc1 (centres undefined) |  | 13.2 µM |  | 21.5 µM |  | 21.5 µM |  | 21.5 µM |  | 13 µM |  | 21.5 µM |  | 14.9 µM |  | 21.5 µM |  | 15.4 µM |  | 12.8 µM
COc1cc(-c2cc(-c3cccs3)c(C#N)c(N3CCOCC3)n2)cc(OC)c1OC | 4.73 µM | > 100 µM | 7.27 µM | > 100 µM | > 52.1 µM | > 100 µM | 10.3 µM | > 100 µM | 14.9 µM | > 88.9 µM | 2.87 µM | 9.01 µM | 5.71 µM | > 100 µM | 3.32 µM | > 85.3 µM | 7.57 µM | > 100 µM | 5.12 µM | > 100 µM
